Assays:
Test in all cases: relative viability (nuclei count vs DMSO), 5 days (fraction); higher = more cells survive
[1] = compound: NCC(=O)Nc1ccc(-n2nc(C(F)(F)F)cc2-c2ccc3c(ccc4ccccc43)c2)cc1 + CC(=O)Nc1cccc(-n2c(=O)n(C3CC3)c(=O)c3c(Nc4ccc(I)cc4F)n(C)c(=O)c(C)c32)c1 [Trametinib] (partner 0.02 µM)
Summary of the method: (§1)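 Nuclei were stained with Hoechst during a one-step fixation (final 0.05% Triton X-100, 1% formaldehyde, 1 ug/ml Hoechst) carried out 5 days after dosing, then counted on 4× images. The cells, lung cancer lines in 1536-well plates, had been dosed by pin tool the day after seeding with one drug alone or a fixed anchor-drug dose plus five library-drug doses (not always all listed) in √10 steps. Relative viability is the nuclei count in treated wells divided by that in vehicle wells, and each value is the median of duplicate plates.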

[2] = compound: C1CSC2=C(C(=O)N1)SC3=C2C=C(C=C3)O [kb NB 142-70] + Cc1cc(Nc2cc(N3CCN(C)CC3)nc(Sc3ccc(NC(=O)C4CC4)cc3)n2)n[nH]1 [Tozasertib] (partner 0.1 µM)
Summary of the method: as §1

[3] = compound: C1CSC2=C(C(=O)N1)SC3=C2C=C(C=C3)O [kb NB 142-70] + Nc1nc2[nH]cc(CCc3ccc(C(=O)N[C@@H](CCC(=O)O)C(=O)O)cc3)c2c(=O)[nH]1 [Pemetrexed] (partner 0.2 µM)
Summary of the method: as §1

[4] = compound: NCC(=O)Nc1ccc(-n2nc(C(F)(F)F)cc2-c2ccc3c(ccc4ccccc43)c2)cc1 + NC(=O)Nc1cc(-c2cccc(F)c2)sc1C(=O)N[C@H]1CCCNC1 [AZD7762] (partner 0.2 µM)
Summary of the method: as §1

[5] = compound: C1CSC2=C(C(=O)N1)SC3=C2C=C(C=C3)O [kb NB 142-70] + Nc1ncn([C@H]2C[C@H](O)[C@@H](CO)O2)c(=O)n1 [Decitabine] (partner 2 µM)
Summary of the method: as §1

| Cell Line | relative viability ([1]; first compound 0.02 µM) | relative viability ([1]; first compound 0.06325 µM) | relative viability ([1]; first compound 0.2 µM) | relative viability ([1]; first compound 0.6325 µM) | relative viability ([1]; first compound 2 µM) | relative viability ([2]; first compound 0.1 µM) | relative viability ([2]; first compound 1 µM) | relative viability ([2]; first compound 3.162 µM) | relative viability ([3]; first compound 0.1 µM) | relative viability ([3]; first compound 1 µM) | relative viability ([3]; first compound 3.162 µM) | relative viability ([4]; first compound 0.02 µM) | relative viability ([4]; first compound 0.06325 µM) | relative viability ([4]; first compound 0.2 µM) | relative viability ([4]; first compound 0.6325 µM) | relative viability ([4]; first compound 2 µM) | relative viability ([5]; first compound 0.1 µM) | relative viability ([5]; first compound 1 µM) | relative viability ([5]; first compound 3.162 µM) |
| --- | --- | --- | --- | --- | --- | --- | --- | --- | --- | --- | --- | --- | --- | --- | --- | --- | --- | --- | --- |
| NCI-H1651 | 0.804 | 0.815 | 0.858 | 0.798 | 0.851 | 0.678 | 0.748 | 0.311 | 0.598 | 0.578 | 0.552 | 0.447 | 0.433 | 0.513 | 0.47 | 0.423 | 0.61 | 0.607 | 0.491 |
| NCI-H1666 | 0.905 | 0.849 | 0.914 | 0.868 | 0.851 | 0.642 | 0.614 | 0.479 | 0.811 | 0.977 | 0.897 | 0.75 | 0.844 | 0.919 | 0.868 | 0.91 | 0.76 | 0.712 | 0.603 |
| NCI-H1734 | 0.686 | 0.712 | 0.667 | 0.657 | 0.7 | 0.271 | 0.263 | 0.234 | 0.395 | 0.369 | 0.376 | 0.52 | 0.556 | 0.565 | 0.515 | 0.611 | 0.525 | 0.46 | 0.348 |
| NCI-H1755 | 0.782 | 0.765 | 0.737 | 0.768 | 0.71 | 0.627 | 0.492 | 0.63 | 0.43 | 0.403 | 0.519 | 0.448 | 0.569 | 0.448 | 0.394 | 0.449 | 0.7 | 0.729 | 0.727 |
| NCI-H1793 | 0.438 | 0.373 | 0.498 | 0.435 | 0.396 | 0.377 | 0.346 | 0.197 | 0.73 | 0.902 | 0.609 | 0.434 | 0.568 | 0.573 | 0.447 | 0.742 | 0.487 | 0.544 | 0.3 |
| NCI-H1915 | 0.284 | 0.314 | 0.31 | 0.296 | 0.322 | 0.445 | 0.397 | 0.276 | 0.462 | 0.532 | 0.474 | 0.644 | 0.729 | 0.642 | 0.703 | 0.754 | 0.263 | 0.246 | 0.23 |
| NCI-H1944 | 0.429 | 0.408 | 0.437 | 0.413 | 0.403 | 0.244 | 0.244 | 0.27 | 0.633 | 0.757 | 0.665 | 0.476 | 0.484 | 0.551 | 0.47 | 0.559 | 0.451 | 0.458 | 0.473 |
| NCI-H1975 | 0.399 | 0.39 | 0.405 | 0.32 | 0.284 | 0.787 | 0.746 | 0.28 | 0.259 | 0.309 | 0.239 | 0.732 | 0.699 | 0.777 | 0.691 | 0.708 | 0.431 | 0.388 | 0.295 |
| NCI-H1993 | 0.494 | 0.41 | 0.586 | 0.64 | 0.515 | 0.604 | 0.648 | 0.536 | 0.562 | 0.597 | 0.554 | 0.957 | 0.933 | 0.706 | 0.839 | 0.784 | 0.63 | 0.589 | 0.514 |
| NCI-H2085 | 0.402 | 0.623 | 0.507 | 0.547 | 0.626 | 0.796 | 0.825 | 0.661 | 0.866 | 0.947 | 0.792 | 0.943 | 1.03 | 1.04 | 1.06 | 1.04 | 0.55 | 0.522 | 0.448 |
| NCI-H2087 | 0.155 | 0.209 | 0.214 | 0.181 | 0.185 | 0.267 | 0.201 | 0.141 | 0.569 | 0.681 | 0.527 | 1.29 | 1.24 | 1.31 | 1.36 | 1.23 | 0.277 | 0.245 | 0.189 |
| NCI-H2126 | 0.586 | 0.599 | 0.626 | 0.553 | 0.54 | 0.805 | 0.858 | 0.823 | 0.666 | 0.702 | 0.762 | 0.969 | 1.12 | 1.02 | 1.01 | 1.01 | 0.555 | 0.616 | 0.571 |
| NCI-H2170 | 0.89 | 0.91 | 0.989 | 0.884 | 0.912 | 0.688 | 0.735 | 0.481 | 0.273 | 0.296 | 0.333 | 0.87 | 0.907 | 0.94 | 0.911 | 0.86 | 0.501 | 0.496 | 0.369 |
| NCI-H2342 | 0.887 | 0.877 | 0.965 | 0.833 | 0.776 | 0.447 | 0.614 | 0.544 | 0.781 | 0.774 | 0.697 | 0.666 | 0.633 | 0.502 | 0.449 | 0.558 | 0.66 | 0.694 | 0.748 |
| NCI-H2347 | 0.311 | 0.285 | 0.297 | 0.268 | 0.357 | 0.69 | 0.589 | 0.506 | 0.453 | 0.449 | 0.426 | 0.719 | 0.696 | 0.756 | 0.817 | 0.75 | 0.651 | 0.613 | 0.58 |
| NCI-H2405 | 0.5 | 0.721 | 0.67 | 0.635 | 0.734 | 0.785 | 0.695 | 0.652 | 1.11 | 0.995 | 0.523 | 0.725 | 0.781 | 0.774 | 0.728 | 0.718 | 0.727 | 0.783 | 0.648 |
